Results published in the supplement of paper PMC11368000.

What was measured:
Details in all cases: exposure time: 90 min
1083 = donor line of iPSC-derived cardiomyocytes; experiment: POD (EC95) for loss of peak frequency (asystole) vs vehicle; higher = less potent (higher point of departure)
Method: (§1)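 Human iPSC-derived cardiomyocytes from 16 donors were exposed for 90 min at 37 °C to each PFAS at 0.1, 1, 10 and 100 µM in 0.5% DMSO, 384-well plates. Kinetic Ca2+ flux (FLIPR) and Hoechst nuclei counts were normalised to vehicle wells and fitted with a hierarchical Bayesian Hill model to give donor-specific PODs: EC05 for beat-rate increase or decrease and for decay-to-rise ratio increase (QT proxy), EC95 for peak-frequency loss (asystole), EC10 for total cell number loss. 0.03 µM is the lower bound.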

1118 = donor line of iPSC-derived cardiomyocytes; experiment: as above
Method: as §1

11235 = donor line of iPSC-derived cardiomyocytes; experiment: as above
Method: as §1

1309 [1] = donor line of iPSC-derived cardiomyocytes; experiment: as above
Method: as §1

1368 = donor line of iPSC-derived cardiomyocytes; experiment: as above
Method: as §1

1392 = donor line of iPSC-derived cardiomyocytes; experiment: as above
Method: as §1

1434 = donor line of iPSC-derived cardiomyocytes; experiment: as above
Method: as §1

1516 = donor line of iPSC-derived cardiomyocytes; experiment: as above
Method: as §1

1518 = donor line of iPSC-derived cardiomyocytes; experiment: as above
Method: as §1

1531 [2] = donor line of iPSC-derived cardiomyocytes; experiment: as above
Method: as §1

1535 = donor line of iPSC-derived cardiomyocytes; experiment: as above
Method: as §1

1565 = donor line of iPSC-derived cardiomyocytes; experiment: as above
Method: as §1

20032 [3] = donor line of iPSC-derived cardiomyocytes; experiment: as above
Method: as §1

20084 = donor line of iPSC-derived cardiomyocytes; experiment: as above
Method: as §1

30145 [4] = donor line of iPSC-derived cardiomyocytes; experiment: as above
Method: as §1

30171 = donor line of iPSC-derived cardiomyocytes; experiment: as above
Method: as §1

1309 [5] = experiment: POD (EC10) for decrease in total cell number (cytotoxicity) vs vehicle; higher = less potent (higher point of departure)
Method: as §1

1531 [6] = experiment: as above
Method: as §1

20032 [7] = experiment: as above
Method: as §1

30145 [8] = experiment: as above
Method: as §1

Row | SMILES | POD vs vehicle 1083 [µM] | POD vs vehicle 1118 [µM] | POD vs vehicle 11235 [µM] | POD vs vehicle 1309 [1] [µM] | POD vs vehicle 1368 [µM] | POD vs vehicle 1392 [µM] | POD vs vehicle 1434 [µM] | POD vs vehicle 1516 [µM] | POD vs vehicle 1518 [µM] | POD vs vehicle 1531 [2] [µM] | POD vs vehicle 1535 [µM] | POD vs vehicle 1565 [µM] | POD vs vehicle 20032 [3] [µM] | POD vs vehicle 20084 [µM] | POD vs vehicle 30145 [4] [µM] | POD vs vehicle 30171 [µM] | POD vs vehicle 1309 [5] [µM] | POD vs vehicle 1531 [6] [µM] | POD vs vehicle 20032 [7] [µM] | POD vs vehicle 30145 [8] [µM]
1 | COC(=O)C(F)(F)C(F)(F)OC(F)(C(F)(F)F)C(F)(F)OC(F)=C(F)F (stereo not given) [Methyl_perfluoro(3-(1-ethenyloxypropan-2-yloxy)propanoate)] | > 100 | > 100 | > 100 | > 100 | > 100 | > 100 | > 100 | > 100 | > 100 | > 100 | > 100 | > 100 | > 100 | > 100 | > 100 | > 100 | > 100 | > 100 | 0.591 | > 100
2 | NC(=O)C(F)(F)C(F)(F)C(F)(F)C(F)(F)F [Nonafluoropentanamide] | > 100 | 84.9 | > 100 | > 100 | > 100 | > 100 | > 100 | > 100 | > 100 | > 100 | > 100 | > 100 | > 100 | > 100 | > 100 | > 100 | > 100 | > 100 | > 100 | > 100
3 | NC(=O)C(F)(F)C(F)(F)C(F)(F)C(F)(F)C(N)=O [Octafluoroadipamide] | > 100 | > 100 | > 100 | > 100 | > 100 | > 100 | > 100 | > 100 | > 100 | > 100 | > 100 | > 100 | > 100 | > 100 | > 100 | > 100 | > 100 | > 100 | > 100 | > 100
4 | O=C(O)C(F)(F)C(F)(F)C(F)(F)OC(F)(F)F [Perfluoro(4-methoxybutanoic)_acid] | > 100 | > 100 | > 100 | > 100 | > 100 | > 100 | > 100 | > 100 | > 100 | > 100 | > 100 | > 100 | > 100 | > 100 | > 100 | > 100 | > 100 | > 100 | > 100 | > 100
5 | O=C(O)C(F)(F)OC(F)(F)C(F)(F)OC(F)(F)C(F)(F)OC(F)(F)C(F)(F)C(F)(F)C(F)(F)F [Perfluoro-3,6,9-trioxatridecanoic_acid] | 79.4 | 63.7 | 92.2 | > 100 | > 100 | > 100 | 89.3 | 84.8 | > 100 | 11.4 | > 100 | > 100 | > 100 | > 100 | > 100 | 73 | > 100 | > 100 | > 100 | > 100
6 | O=C(O)C(F)(F)OC(F)(F)C(F)(F)OC(F)(F)F [Perfluoro-3,6-dioxaheptanoic_acid] | > 100 | > 100 | > 100 | > 100 | > 100 | > 100 | > 100 | > 100 | > 100 | > 100 | > 100 | > 100 | > 100 | > 100 | > 100 | > 100 | > 100 | > 100 | > 100 | > 100
7 | O=C(O)C(F)(F)OC(F)(F)C(F)(F)OC(F)(F)C(=O)O [Perfluoro-3,6-dioxaoctane-1,8-dioic_acid] | > 100 | > 100 | > 100 | > 100 | > 100 | > 100 | > 100 | > 100 | > 100 | > 100 | > 100 | > 100 | > 100 | > 100 | > 100 | > 100 | > 100 | > 100 | > 100 | > 100
8 | O=C(O)C(F)(F)C(F)(F)OC(F)(F)F [Perfluoro-3-methoxypropanoic_acid] | > 100 | > 100 | > 100 | > 100 | > 100 | > 100 | > 100 | > 100 | > 100 | > 100 | > 100 | > 100 | > 100 | > 100 | > 100 | > 100 | > 100 | > 100 | > 100 | > 100
9 | O=C(O)C(F)(F)C(F)(F)C(F)(F)OC(F)(C(F)(F)F)C(F)(F)F [Perfluoro-4-isopropoxybutanoic_acid] | > 100 | > 100 | > 100 | > 100 | > 100 | > 100 | > 100 | > 100 | > 100 | > 100 | > 100 | > 100 | > 100 | > 100 | > 100 | > 100 | > 100 | > 100 | > 100 | > 100
